# Measured values from ChEMBL document CHEMBL3885881, “DrugMatrix”.
# Species on record: Rattus norvegicus
# Experiment: DrugMatrix - Regimen: Daily Repeat
# Type: toxicity, organism-based, Sprague-Dawley
# Set-up: regimen Daily Repeat, gender Male, age 6-8 weeks
# Conditions: in vivo, po, route oral GAVAGE, vehicle 100 % SALINE; for ABSOLUTE BASOPHIL / ABSOLUTE EOSINOPHIL / ABSOLUTE LYMPHOCYTE / ABSOLUTE MONOCYTE / ABSOLUTE SEGMENTED NEUTROPHIL / BASOPHIL / EOSINOPHIL / ERYTHROCYTE COUNT / HEMOGLOBIN / LEUKOCYTE COUNT / LYMPHOCYTE / MEAN CORPUSCULAR HEMOGLOBIN / MEAN CORPUSCULAR HEMOGLOBIN CONCENTRATION / MEAN CORPUSCULAR VOLUME / MONOCYTE / NEUTROPHIL / NUCLEATED RED BLOOD CELLS / PLATELET COUNT / HEMATOCRIT: tissue Blood
# [1] = 200 mg/kg, 120 h, dose level Low, time 5 day
# [2] = 200 mg/kg, 120 h, tissue Plasma, dose level Low, time 5 day
# [3] = 600 mg/kg, 72 h, dose level High, time 3 day
# [4] = 600 mg/kg, 72 h, tissue Plasma, dose level High, time 3 day
# [5] = 600 mg/kg, 120 h, dose level High, time 5 day
# [6] = 600 mg/kg, 120 h, tissue Plasma, dose level High, time 5 day
substance,measurement,setting,value
LEAD(IV) ACETATE,ABSOLUTE BASOPHIL,[1],0 CELLS/uL
same,ABSOLUTE EOSINOPHIL,[1],0 CELLS/uL
same,ABSOLUTE LYMPHOCYTE,[1],11837.33 CELLS/uL
same,ABSOLUTE MONOCYTE,[1],82.67 CELLS/uL
same,ABSOLUTE SEGMENTED NEUTROPHIL,[1],680 CELLS/uL
same,BASOPHIL,[1],0%
same,EOSINOPHIL,[1],0%
same,ERYTHROCYTE COUNT,[1],5.76 x10E6/uL
same,HEMOGLOBIN,[1],13.8 G/DL
same,LEUKOCYTE COUNT,[1],12.6 x10E3/uL
same,LYMPHOCYTE,[1],93.67%
same,MEAN CORPUSCULAR HEMOGLOBIN,[1],23.93 pg
same,MEAN CORPUSCULAR HEMOGLOBIN CONCENTRATION,[1],39.23 G/DL
same,MEAN CORPUSCULAR VOLUME,[1],61.03 fL
same,MONOCYTE,[1],0.67%
same,NEUTROPHIL,[1],5.67%
same,NUCLEATED RED BLOOD CELLS,[1],0.33 /100WBC
same,PLATELET COUNT,[1],1075 x10E3/uL
same,ALANINE AMINOTRANSFERASE,[2],43.33 u/L
same,ALKALINE PHOSPHATASE,[2],339 u/L
same,ASPARTATE AMINOTRANSFERASE,[2],80 u/L
same,BLOOD UREA NITROGEN,[2],13.33 mg/dL
same,CARBON DIOXIDE,[2],33 mmol/L
same,CHLORIDE,[2],99 MEQ/L
same,CHOLESTEROL,[2],74.67 mg/dL
same,CREATINE PHOSPHOKINASE,[2],263.33 u/L
same,CREATININE,[2],0.31 mg/dL
same,GLUCOSE,[2],134 mg/dL
same,LACTATE DEHYDROGENASE,[2],132.67 u/L
same,LIPASE,[2],14.33 u/L
same,PHOSPHORUS,[2],11.33 mg/dL
same,POTASSIUM,[2],5.88 MEQ/L
same,SODIUM,[2],146.7 MEQ/L
same,TOTAL BILIRUBIN,[2],0.17 mg/dL
same,TOTAL PROTEIN,[2],6.4 G/DL
same,URIC ACID,[2],0.57 mg/dL
same,ABSOLUTE BASOPHIL,[3],0 CELLS/uL
same,ABSOLUTE EOSINOPHIL,[3],0 CELLS/uL
same,ABSOLUTE LYMPHOCYTE,[3],6951.33 CELLS/uL
same,ABSOLUTE MONOCYTE,[3],49.33 CELLS/uL
same,ABSOLUTE SEGMENTED NEUTROPHIL,[3],532.67 CELLS/uL
same,BASOPHIL,[3],0%
same,EOSINOPHIL,[3],0%
same,ERYTHROCYTE COUNT,[3],5.19 x10E6/uL
same,HEMATOCRIT,[3],32%
same,HEMOGLOBIN,[3],12.7 G/DL
same,LEUKOCYTE COUNT,[3],7.53 x10E3/uL
same,LYMPHOCYTE,[3],92%
same,MEAN CORPUSCULAR HEMOGLOBIN CONCENTRATION,[3],39.7 G/DL
same,MONOCYTE,[3],0.67%
same,NEUTROPHIL,[3],7.33%
same,NUCLEATED RED BLOOD CELLS,[3],0 /100WBC
same,PLATELET COUNT,[3],1337.33 x10E3/uL
same,ALANINE AMINOTRANSFERASE,[4],41.67 u/L
same,ALBUMIN,[4],4 G/DL
same,ALKALINE PHOSPHATASE,[4],253 u/L
same,ASPARTATE AMINOTRANSFERASE,[4],83 u/L
same,BLOOD UREA NITROGEN,[4],10.33 mg/dL
same,CARBON DIOXIDE,[4],27 mmol/L
same,CHOLESTEROL,[4],81.33 mg/dL
same,CREATINE PHOSPHOKINASE,[4],396 u/L
same,CREATININE,[4],0.38 mg/dL
same,LACTATE DEHYDROGENASE,[4],126.67 u/L
same,LIPASE,[4],11.33 u/L
same,POTASSIUM,[4],5.16 MEQ/L
same,TOTAL BILIRUBIN,[4],0.1 mg/dL
same,URIC ACID,[4],0.83 mg/dL
same,ABSOLUTE BASOPHIL,[5],0 CELLS/uL
same,ABSOLUTE EOSINOPHIL,[5],0 CELLS/uL
same,ABSOLUTE LYMPHOCYTE,[5],13230 CELLS/uL
same,ABSOLUTE MONOCYTE,[5],139 CELLS/uL
same,ABSOLUTE SEGMENTED NEUTROPHIL,[5],1031 CELLS/uL
same,BASOPHIL,[5],0%
same,EOSINOPHIL,[5],0%
same,ERYTHROCYTE COUNT,[5],6.04 x10E6/uL
same,HEMATOCRIT,[5],35.43%
same,HEMOGLOBIN,[5],13.83 G/DL
same,LEUKOCYTE COUNT,[5],14.4 x10E3/uL
same,LYMPHOCYTE,[5],92%
same,MEAN CORPUSCULAR HEMOGLOBIN,[5],22.97 pg
same,MEAN CORPUSCULAR HEMOGLOBIN CONCENTRATION,[5],39.07 G/DL
same,MEAN CORPUSCULAR VOLUME,[5],58.67 fL
same,MONOCYTE,[5],1%
same,NEUTROPHIL,[5],7%
same,NUCLEATED RED BLOOD CELLS,[5],0.33 /100WBC
same,PLATELET COUNT,[5],1226 x10E3/uL
same,ALANINE AMINOTRANSFERASE,[6],46.33 u/L
same,ALKALINE PHOSPHATASE,[6],257 u/L
same,ASPARTATE AMINOTRANSFERASE,[6],82 u/L
same,BLOOD UREA NITROGEN,[6],11.67 mg/dL
same,CARBON DIOXIDE,[6],35 mmol/L
same,CHLORIDE,[6],97.67 MEQ/L
same,CHOLESTEROL,[6],86 mg/dL
same,CREATINE PHOSPHOKINASE,[6],294 u/L
same,CREATININE,[6],0.19 mg/dL
same,LACTATE DEHYDROGENASE,[6],99 u/L
same,PHOSPHORUS,[6],10.3 mg/dL
same,POTASSIUM,[6],5.89 MEQ/L
same,TOTAL BILIRUBIN,[6],0.13 mg/dL
same,TOTAL PROTEIN,[6],6 G/DL
same,URIC ACID,[6],0.7 mg/dL
